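A five-concentration, 48-hour dose response in 96-well plates underlies each endpoint, interpolated linearly between surrounding concentrations. Here, GI50 denotes the concentration required for 50% inhibition of growth.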 The source made the active and inactive calls. Rule as the data show it: active = GI50 up to about 1.1 µM and inactive = higher.
How the values were obtained:
Assay in all cases: NCI-60 cell line screen, 48 h
[1] = tested on: SF-539
[2] = tested on: UO-31
[3] = tested on: U-251
[4] = tested on: CAKI-1
[5] = tested on: IGROV-1
[6] = tested on: HL-60
[7] = tested on: UACC-62
[8] = tested on: A498
[9] = tested on: BT-549
[10] = tested on: MDA-MB-435
[11] = tested on: A549
[12] = tested on: SK-MEL-5
[13] = tested on: UACC-257
[14] = tested on: SNB-19
[15] = tested on: OVCAR-3
[16] = tested on: OVCAR-4
[17] = tested on: MOLT-4
[18] = tested on: EKVX
[19] = tested on: RPMI-8226

**Q.** What does the source list for `Cc1[nH]n(C(=N)N)c(=O)c1CCO`?
**A.** GI50 [1]: > 100 µM (inactive); GI50 [2]: > 100 µM (inactive); GI50 [3]: > 100 µM (inactive); GI50 [4]: > 100 µM (inactive); GI50 [5]: > 100 µM (inactive); GI50 [6]: > 100 µM (inactive); GI50 [7]: > 100 µM (inactive); GI50 [8]: > 100 µM (inactive); GI50 [9]: > 100 µM (inactive); GI50 [10]: > 100 µM (inactive); GI50 [11]: > 100 µM (inactive); GI50 [12]: > 100 µM (inactive); GI50 [13]: > 100 µM (inactive); GI50 [14]: > 100 µM (inactive); GI50 [15]: > 100 µM (inactive); GI50 [16]: > 100 µM (inactive)

**Q.** For `COc1ccc(CC2c3cc(OC)c(OC)c(OC)c3CC[N+]2(C)C)cc1Oc1ccc(CC2c3cc4c(c(OC)c3CC[N+]2(C)C)OCO4)cc1` (stereo unspecified), which GI50 [2] is on record?
**A.** Its GI50 is > 100 µM (inactive).

**Q.** What about the GI50 [3] of the same compound?
**A.** The GI50 was > 100 µM (inactive).

**Q.** What about the GI50 [4] of the same compound?
**A.** Its GI50 is > 100 µM (inactive).

**Q.** And the GI50 [5]?
**A.** The GI50 was > 100 µM (inactive).

**Q.** What about the GI50 [6] of the same compound?
**A.** The GI50 was > 100 µM (inactive).

**Q.** And the GI50 [7]?
**A.** The GI50 was > 100 µM (inactive).

**Q.** What about the GI50 [8] of the same compound?
**A.** Its GI50 is > 100 µM (inactive).

**Q.** And the GI50 [9]?
**A.** Its GI50 is > 100 µM (inactive).

**Q.** And the GI50 [10]?
**A.** Its GI50 is > 100 µM (inactive).

**Q.** What about the GI50 [11] of the same compound?
**A.** The GI50 was 34.4 µM (inactive).

**Q.** And the GI50 [17]?
**A.** The GI50 was > 100 µM (inactive).

**Q.** And the GI50 [12]?
**A.** Its GI50 is > 100 µM (inactive).

**Q.** And the GI50 [13]?
**A.** The GI50 was > 100 µM (inactive).

**Q.** And the GI50 [14]?
**A.** The GI50 was > 100 µM (inactive).

**Q.** What about the GI50 [16] of the same compound?
**A.** Its GI50 is > 100 µM (inactive).

**Q.** What about the GI50 [18] of the same compound?
**A.** The GI50 was > 100 µM (inactive).

**Q.** What does the source list for `COP(=O)(OC)C(Nc1ccc(Cc2ccc(NC(c3ccco3)P(=O)(OC)OC)cc2)cc1)c1ccco1` (stereo unspecified)?
**A.** GI50 [1]: 4.79 µM (inactive); GI50 [2]: 79.1 µM (inactive); GI50 [3]: 5.33 µM (inactive); GI50 [4]: 26.3 µM (inactive); GI50 [5]: 31.4 µM (inactive); GI50 [6]: > 100 µM (inactive); GI50 [7]: 17 µM (inactive); GI50 [8]: 19 µM (inactive); GI50 [9]: 17.3 µM (inactive); GI50 [10]: > 100 µM (inactive); GI50 [11]: > 100 µM (inactive); GI50 [17]: > 100 µM (inactive); GI50 [12]: > 100 µM (inactive); GI50 [13]: > 100 µM (inactive); GI50 [14]: 11.9 µM (inactive); GI50 [15]: 85.1 µM (inactive); GI50 [16]: > 100 µM (inactive); GI50 [18]: 20.9 µM (inactive)

**Q.** Which results are given for `CC1=Nc2nc3ccccc3n2C(C)(C)C1`?
**A.** GI50 [1]: > 100 µM (inactive); GI50 [2]: > 100 µM (inactive); GI50 [3]: > 100 µM (inactive); GI50 [4]: > 100 µM (inactive); GI50 [5]: > 100 µM (inactive); GI50 [7]: > 100 µM (inactive); GI50 [8]: > 100 µM (inactive); GI50 [9]: > 100 µM (inactive); GI50 [10]: > 100 µM (inactive); GI50 [11]: > 100 µM (inactive); GI50 [17]: > 100 µM (inactive); GI50 [12]: > 100 µM (inactive); GI50 [13]: > 100 µM (inactive); GI50 [14]: > 100 µM (inactive); GI50 [19]: > 100 µM (inactive); GI50 [15]: > 100 µM (inactive); GI50 [16]: > 100 µM (inactive); GI50 [18]: > 100 µM (inactive)

**Q.** Which results are given for `COc1ccc(NC(=S)C#N)cc1`?
**A.** GI50 [1]: > 100 µM (inactive); GI50 [3]: > 100 µM (inactive); GI50 [4]: > 100 µM (inactive); GI50 [6]: 53 µM (inactive); GI50 [7]: > 100 µM (inactive); GI50 [8]: 51.9 µM (inactive); GI50 [9]: > 100 µM (inactive); GI50 [10]: > 100 µM (inactive); GI50 [11]: > 100 µM (inactive); GI50 [12]: > 100 µM (inactive); GI50 [13]: > 100 µM (inactive); GI50 [14]: > 100 µM (inactive); GI50 [19]: 38.7 µM (inactive); GI50 [15]: > 100 µM (inactive)

**Q.** For `CCCCCCCC/C=C\CCCCCCC/C=C1/C[C@](/C=C/C(=O)OC)(CO)OC1=O`, which GI50 [1] is on record?
**A.** The GI50 was 1.01 µM (active).

**Q.** And the GI50 [2]?
**A.** The GI50 was 1.77 µM (inactive).

**Q.** And the GI50 [3]?
**A.** The GI50 was 6.03 µM (inactive).

**Q.** What about the GI50 [4] of the same compound?
**A.** The GI50 was 1.29 µM (inactive).

**Q.** What about the GI50 [5] of the same compound?
**A.** Its GI50 is 11.5 µM (inactive).

**Q.** And the GI50 [6]?
**A.** The GI50 was 1.63 µM (inactive).

**Q.** And the GI50 [7]?
**A.** The GI50 was 9.35 µM (inactive).

**Q.** What about the GI50 [8] of the same compound?
**A.** Its GI50 is 8.67 µM (inactive).

**Q.** What about the GI50 [9] of the same compound?
**A.** The GI50 was 5.02 µM (inactive).

**Q.** What about the GI50 [10] of the same compound?
**A.** Its GI50 is 0.904 µM (active).

**Q.** And the GI50 [11]?
**A.** The GI50 was 2.37 µM (inactive).

**Q.** What about the GI50 [17] of the same compound?
**A.** The GI50 was 1.3 µM (inactive).

**Q.** And the GI50 [12]?
**A.** Its GI50 is 2.84 µM (inactive).

**Q.** And the GI50 [13]?
**A.** Its GI50 is 15.6 µM (inactive).

**Q.** What about the GI50 [14] of the same compound?
**A.** Its GI50 is 7.16 µM (inactive).

**Q.** And the GI50 [15]?
**A.** Its GI50 is 11.6 µM (inactive).

**Q.** What about the GI50 [16] of the same compound?
**A.** The GI50 was 6.58 µM (inactive).

**Q.** What about the GI50 [18] of the same compound?
**A.** Its GI50 is 9.73 µM (inactive).

**Q.** How did the GI50 [1] turn out when `Brc1ccc(-c2ccc(-c3ccc(Br)s3)s2)s1` was run?
**A.** The GI50 was > 100 µM (inactive).

**Q.** What about the GI50 [2] of the same compound?
**A.** The GI50 was > 100 µM (inactive).

**Q.** What about the GI50 [3] of the same compound?
**A.** The GI50 was > 100 µM (inactive).

**Q.** And the GI50 [5]?
**A.** Its GI50 is > 100 µM (inactive).

**Q.** And the GI50 [6]?
**A.** Its GI50 is > 100 µM (inactive).

**Q.** What about the GI50 [7] of the same compound?
**A.** The GI50 was > 100 µM (inactive).

**Q.** And the GI50 [8]?
**A.** The GI50 was > 100 µM (inactive).

**Q.** And the GI50 [9]?
**A.** Its GI50 is > 100 µM (inactive).

**Q.** What about the GI50 [10] of the same compound?
**A.** The GI50 was > 100 µM (inactive).

**Q.** What about the GI50 [11] of the same compound?
**A.** Its GI50 is > 100 µM (inactive).

**Q.** What about the GI50 [17] of the same compound?
**A.** Its GI50 is > 100 µM (inactive).

**Q.** And the GI50 [12]?
**A.** Its GI50 is > 100 µM (inactive).

**Q.** What about the GI50 [13] of the same compound?
**A.** Its GI50 is > 100 µM (inactive).

**Q.** What about the GI50 [14] of the same compound?
**A.** The GI50 was > 100 µM (inactive).

**Q.** And the GI50 [19]?
**A.** Its GI50 is > 100 µM (inactive).

**Q.** And the GI50 [15]?
**A.** Its GI50 is > 100 µM (inactive).

**Q.** And the GI50 [16]?
**A.** The GI50 was > 100 µM (inactive).

**Q.** What about the GI50 [18] of the same compound?
**A.** The GI50 was > 100 µM (inactive).

**Q.** For `O=C(CCC=C(S(=O)(=O)c1ccccc1)S(=O)(=O)c1ccccc1)c1ccccc1`, which GI50 [1] is on record?
**A.** The GI50 was 2.96 µM (inactive).

**Q.** And the GI50 [2]?
**A.** The GI50 was 6.15 µM (inactive).

**Q.** What about the GI50 [3] of the same compound?
**A.** Its GI50 is 4.03 µM (inactive).

**Q.** What about the GI50 [4] of the same compound?
**A.** The GI50 was 5.96 µM (inactive).

**Q.** And the GI50 [5]?
**A.** Its GI50 is 12.3 µM (inactive).

**Q.** And the GI50 [6]?
**A.** Its GI50 is 1.86 µM (inactive).

**Q.** What about the GI50 [7] of the same compound?
**A.** Its GI50 is 6.92 µM (inactive).

**Q.** And the GI50 [8]?
**A.** Its GI50 is 17.3 µM (inactive).

**Q.** What about the GI50 [9] of the same compound?
**A.** The GI50 was 5.82 µM (inactive).

**Q.** What about the GI50 [10] of the same compound?
**A.** Its GI50 is 5.25 µM (inactive).

**Q.** And the GI50 [11]?
**A.** Its GI50 is 17.1 µM (inactive).

**Q.** And the GI50 [17]?
**A.** Its GI50 is 3.98 µM (inactive).

**Q.** What about the GI50 [12] of the same compound?
**A.** The GI50 was 6.97 µM (inactive).

**Q.** What about the GI50 [13] of the same compound?
**A.** Its GI50 is 8.91 µM (inactive).

**Q.** What about the GI50 [14] of the same compound?
**A.** The GI50 was 13.6 µM (inactive).

**Q.** What about the GI50 [15] of the same compound?
**A.** The GI50 was 4.27 µM (inactive).

**Q.** And the GI50 [16]?
**A.** The GI50 was 9.33 µM (inactive).

**Q.** What about the GI50 [18] of the same compound?
**A.** The GI50 was 12.7 µM (inactive).
